Measured values as given in US20090036821A1 (priority 2005, published 2009).
Where a name gives a salt, the structure may show the parent alone. Read-outs that look alike come from different tables or passages of the source.

Key:
[1] = for Iontophoretic flux of nicotine versus passive delivery of nicotine base: 500 mM citrate buffer with 50 mM NaCl, current terminated after 4 hours, FIG. 3; for Flux of nicotine after termination of current: current terminated at 4 hrs, 50 mM HEPES, FIG. 6; for Lagtime / Flux: iontophoresis (ITP), donor pH 5.5, 50 mM HEPES; for Flux: steady state when current is present, 0.5 mA/sq.cm; for Flux of nicotine, iontophoresis of salt versus passive permeation of nicotine base / Lagtime during iontophoresis versus passive permeation of nicotine base: iontophoresis at pH 5.5 versus passive base pH 8, FIG. 8
Experimental: The following methodology was employed in the examples described herein: Dermatomed human skin stored at −80° C. was thawed just prior to use. Each permeation experiment consisted of four replicates. The skin for each replicate was obtained from a different donor so that the variation was randomized. Skin was mounted on Valia-Chien (horizontal) diffusion cells for these in vitro permeation studies, with stratum corneum side facing the donor side. The receptor compartment was filled with pH 7.4 phosphate buffer (50 mM). […] Prior to use, both donor and receptor solutions were degassed by helium sparging. The temperature of the water bath was set to 32° C. Both donor and receptor compartments were continuously stirred. For iontophoresis, silver wire was used as the anode in the donor compartment and silver/silver chloride as cathode in the receptor compartment. A current of 0.5 mA/sq.cm was applied for 4 hours. Samples taken periodically from the receptor compartment were analyzed by HPLC assay. An Xterra RP18 column was used and the detection wavelength was 261 nm. The mobile phase was 85:15 buffer:acetonitrile, pumped at 1 mL/min and retention time was about 3 minutes.
Iontophoretic current was terminated after 4 hours.
Iontophoretic delivery of nicotinium dihydrochloride salt was also studied in 50 mM HEPES buffer, adjusted to pH 5.5 with NaOH.
The flux is calculated at steady state when current is present for the iontophoresis experiments.

[2] = Conductivity of donor solution; assay type: physicochemical
[3] = donor solution for iontophoresis, donor pH 5.5, 50 mM HEPES

| Compound | Lagtime [1] [min] | Flux [1] [mg/cm^2-hr] | Conductivity [2, 3] [mS/cm] | other results |
| --- | --- | --- | --- | --- |
| CN1CCCC1c1cccnc1 (centres unmarked) [Base, nicotine] | – | – | – | Nicotine permeation, iontophoresis versus passive delivery ([1]; both conditions evaluated (pH 5.5 and pH 8 buffers), FIGS. 1 and 2): Iontophoresis enhanced nicotine permeation compared to passive nicotine delivery; Conductivity ([2]; donor solution for passive permeation, donor pH 8): 4.73 mS/cm; Passive transport of nicotine, pH 8 versus pH 5.5 (non-ionized form at pH 8 compared to monocationic form at pH 5.5): higher at pH 8; Lagtime (passive permeation, donor pH 8): 87 min; Flux (passive permeation, donor pH 8, 1% nicotine, human skin): 0.1053 mg/cm^2-hr |
| CN1CCCC1c1cccnc1.O=C(O)C(O)C(O)C(=O)O (centres unmarked) [Bitartrate, nicotine bitartrate] | 10 | 0.2073 | 16.3 | Iontophoretic flux of nicotine versus passive delivery of nicotine base [1]: less than the flux from the passive delivery of nicotine base at pH 8; Flux of nicotine after termination of current [1]: decreased sharply; Flux of nicotine, 50 mM HEPES buffer versus 500 mM citrate buffer ([1]; iontophoresis, 50 mM HEPES buffer pH 5.5): higher than the nicotine flux from a 500 mM citrate buffer; Conductivity of donor solution ([2]; in 50 mM HEPES buffer, pH 5.5): 16300 μmhos/cm; Conductivity of donor solution ([2]; in 500 mM citrate buffer): 66400 μmhos/cm |
| CN1CCCC1c1cccnc1.O=C(O)CC(O)(CC(=O)O)C(=O)O [Citrate, nicotine citrate] | 9 | 0.332 | 13.3 | Flux of nicotine, iontophoresis of salt versus passive permeation of nicotine base [1]: increased; Lagtime during iontophoresis versus passive permeation of nicotine base [1]: reduced |
| Br.Br.CN1CCCC1c1cccnc1 (centres unmarked) [HBr] | 63 | 0.2771 | 25.9 | – |
| CN1CCC[C@H]1c1cccnc1 [HCl, nicotinium dihydrochloride] | 22 | 0.2236 | 15.4 | Flux of nicotine after termination of current [1]: decreased sharply; Conductivity of donor solution ([2]; in 50 mM HEPES buffer, pH 5.5): 15400 μmhos/cm |
| CN1CCCC1c1cccnc1.O=C(O)/C=C\C(=O)O (centres unmarked) [Maleate, nicotine maleate] | 4 | 0.2867 | 9.31 | Flux of nicotine, iontophoresis of salt versus passive permeation of nicotine base [1]: increased; Lagtime during iontophoresis versus passive permeation of nicotine base [1]: reduced |
| CN1CCCC1c1cccnc1.O=S(=O)(O)O.O=S(=O)(O)O (centres unmarked) [SO4] | 46 | 0.2554 | 20 | – |
| nicotine hemisulfate | – | – | – | Iontophoretic flux of nicotine versus passive delivery of nicotine base [1]: less than the flux from the passive delivery of nicotine base at pH 8 |
